In data set [1] the test system is HBV (HepG2.117 cell line, inducibly HBV producing). Description: Anti-HBV activity: intracellular HBV DNA by real-time PCR in HepG2.117 cells after 3 days of treatment. The class given is cell-based, hepatitis B virus. A digest of the protocol:
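HepG2.117 cells (Tet-off, inducible HBV production) were induced to replicate HBV by doxycycline absence, then treated with serially diluted compound for 3 days. Activity was quantified as intracellular HBV DNA by real-time PCR using an HBV-specific primer set and probe.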

A short description of data set [2]: in vitro. The data set is classed as cell-based. Conditions: human, HepG2 or HepG2.117 cells, ATPlite, mean value; for CC50 at 4 days: 4-days incubation (values marked with *). In short, it runs like this:
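Luminescent ATP quantitation served as the viability endpoint following a 3- or 4-day incubation with test compounds.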

The mark [3] stands for this setting: Hepatitis B virus, HepG2.117, 72 h, HepG2.117 cells, intracellular HBV DNA by real-time PCR, 3 days of treatment, mean value; read-out: EC50 (μM, mean value).
Where [4] appears, read: 3-days incubation (not marked with *).
Setting [5] is: 3-days incubation (unmarked values).
The mark [6] stands for this setting: Hepatitis B virus, HepG2.117, 72 h, HepG2.117 cells, 3 days of treatment, intracellular HBV DNA by real-time PCR; mean value; read-out: EC50 (μM, mean value).
[7] abbreviates: HepG2.117 cells, intracellular HBV DNA by real-time PCR, 3 days of treatment, mean value; read-out: EC50 (μM, mean value).

Each structure is given as a SMILES string. Like-named read-outs stand apart in the source and are kept apart here. Some results are limits rather than exact numbers.

These results are taken from US20230091047A1 (priority 2019, published 2023).

Turning to `CNC(=O)c1ccc(-n2c(NC(C)C)nc3c(c2=O)C[C@@H](C)N(C(=O)c2ccc(C)c(C(F)(F)F)c2)C3)cc1` [Compound C585], the EC50 in data set [1] (setting [3]) was determined as 0.1 µM. This compound also registered a CC50 at 3 days in data set [2] (setting [4]) above 50 µM.
For `CC(C)Nc1nc2c(c(=O)n1-c1ccc(-c3nccn3C)cc1Cl)C[C@@H](C)N(C(=O)c1ccc(Cl)c(Cl)c1)C2` (single isomer, unassigned) [Compound C392a], in data set [1] (setting [3]), the EC50 amounted to 0.16 µM. Moreover, the midpoint of cytotoxicity in data set [2] (setting [4]), the CC50 at 3 days, lay at 22.7 µM.
With `CNC(=O)c1ccc(-n2c(NC(C)C)nc3c(c2=O)C[C@@H](C)N(C(=O)c2ccc4c(c2)C=CS4(=O)=O)C3)cc1` [Compound C604], the EC50 in data set [1] (setting [3]) is above 25 µM. In data set [2] (setting [4]), this compound returned a CC50 at 3 days above 50 µM.
With `CNC(=O)c1ccc(-n2c(NC(C)C)nc3c(c2=O)C[C@@H](C)N(C(=O)c2ccc(OC(F)F)c(Br)c2)C3)cc1` [Compound C571], in data set [1] (setting [3]), the EC50 worked out at 0.09 µM. In addition, the CC50 at 3 days in data set [2] (setting [4]) was above 50 µM.
Turning to `CNC(=O)c1ccc(-n2c(NC(C)C)nc3c(c2=O)C[C@@H](C)N(C(=O)c2ccc(Cl)c(Cl)c2)C3)c(C(F)(F)F)c1` (atropisomer, axis not shown) [Compound C340a, 4-[(6R)-7-(3,4-dichlorobenzoyl)-6-methyl-4-oxo-2-[(propan-2-yl)amino]-5,6,7,8-tetrahydropyrido[3,4-d]pyrimidin-3(4H)-yl]-N-methyl-3-(trifluoromethyl)benzamide], the EC50 in data set [1] (HepG2.117 cells, 3 days of treatment, intracellular HBV DNA by real-time PCR; mean value; read-out: EC50 (μM, mean value)) was found to be 0.1 µM. Further, the CC50 at 3 days in data set [2] (setting [5]) stood at 23.2 µM.
In the case of `CNC(=O)c1ccc(-n2c(NCc3c[nH]c4ccc(OC)cc34)nc3c(c2=O)C[C@@H](C)N(C(=O)c2ccc(Cl)c(Cl)c2)C3)cc1` [Compound C275, 4-[(6R)-7-(3,4-dichlorobenzoyl)-2-{[(5-methoxy-1H-indol-3-yl)methyl]amino}-6-methyl-4-oxo-5,6,7,8-tetrahydropyrido[3,4-d]pyrimidin-3(4H)-yl]-N-methylbenzamide], the EC50 in data set [1] (setting [6]) worked out at 1.58 µM. This compound also displayed a CC50 at 3 days in data set [2] (setting [5]) above 50 µM.
For the compound `COc1ccccc1-n1c(NC(C)C)nc2c(c1=O)CCN(C(=O)c1ccc(Cl)c(Cl)c1)C2` [Compound C24, 7-(3,4-dichlorobenzoyl)-3-(2-methoxyphenyl)-2-[(propan-2-yl)amino]-5,6,7,8-tetrahydropyrido[3,4-d]pyrimidin-4(3H)-one], the EC50 in data set [1] (setting [6]) stood at 2.25 µM. The CC50 at 4 days in data set [2] is above 50 µM.
For the compound `CNC(=O)c1ccc(-n2c(N[C@H](C)c3ccc(C#N)cc3)nc3c(c2=O)C[C@@H](C)N(C(=O)c2ccc(Cl)c(Cl)c2)C3)cc1` (single isomer, unassigned) [Compound C441a], the EC50 in data set [1] (setting [3]) came out at 0.22 µM. The CC50 at 3 days in data set [2] (setting [4]) is above 50 µM.
With `CNC(=O)c1ccc(-n2c(N[C@H]3C[C@@H]3c3ccc(OC)cc3)nc3c(c2=O)C[C@@H](C)N(C(=O)c2ccc(Cl)c(Cl)c2)C3)cc1` [Compound C452], in data set [1] (setting [7]), the EC50 turned out to be 2.91 µM. Also, in data set [2] (setting [4]), the CC50 at 3 days is above 50 µM.
For the compound `COc1ccc(CNc2nc3c(c(=O)n2-c2cc(OC)cc(S(C)(=O)=O)c2)CCN(C(=O)c2ccc(Cl)c(Cl)c2)C3)cc1` [Compound C87, 7-(3,4-dichlorobenzoyl)-3-[3-(methanesulfonyl)-5-methoxyphenyl]-2-{[(4-methoxyphenyl)methyl]amino}-5,6,7,8-tetrahydropyrido[3,4-d]pyrimidin-4(3H)-one], the EC50 in data set [1] (setting [6]) turned out to be 1.55 µM. The CC50 at 3 days in data set [2] (setting [5]) is above 50 µM.
In the case of `CNC(=O)c1ccc(-n2c(N[C@@H](C)CO)nc3c(c2=O)C[C@@H](C)N(C(=O)c2ccc(Cl)c(Cl)c2)C3)cc1` [Compound C272, 4-[(6R)-7-(3,4-dichlorobenzoyl)-2-{[(2S)-1-hydroxypropan-2-yl]amino}-6-methyl-4-oxo-5,6,7,8-tetrahydropyrido[3,4-d]pyrimidin-3(4H)-yl]-N-methylbenzamide], in data set [1] (setting [6]), the EC50 turned out to be 2.39 µM. The half-maximal cytotoxic concentration (CC50) at 3 days in data set [2] (setting [5]) was above 50 µM.
As for `CNC(=O)c1ccc(-n2c(N[C@H](C)c3ccc4[nH]cnc4c3)nc3c(c2=O)C[C@@H](C)N(C(=O)c2ccc(Cl)c(Cl)c2)C3)cc1` (single isomer, unassigned) [Compound C647a], the EC50 in data set [1] (setting [3]) is above 2.5 µM. The compound also came in with a CC50 at 3 days in data set [2] (setting [4]) above 50 µM.
Regarding `CNC(=O)c1ncc(-n2c(NC)nc3c(c2=O)C[C@@H](C)N(C(=O)c2ccc(Cl)c(Cl)c2)C3)cn1` [Compound C327, 5-[(6R)-7-(3,4-dichlorobenzoyl)-6-methyl-2-(methylamino)-4-oxo-5,6,7,8-tetrahydropyrido[3,4-d]pyrimidin-3(4H)-yl]-N-methylpyrimidine-2-carboxamide], the EC50 in data set [1] (setting [6]) is 5.15 µM. In addition, the CC50 at 3 days in data set [2] (setting [5]) was above 50 µM.
Turning to `CNC(=O)c1ccc(-n2c(NC(C)C)nc3c(c2=O)C[C@@H](C)N(C(=O)c2ccc(Br)c4c2OCCC4)C3)cc1` [Compound C588], in data set [1] (setting [3]), the EC50 was found to be 1.61 µM. In addition, the CC50 at 3 days in data set [2] (setting [4]) is above 50 µM.
For `CNC(=O)c1ccc(-n2c(N[C@H](C)c3ccc(C(F)(F)F)c(F)c3)nc3c(c2=O)C[C@@H](C)N(C(=O)c2ccc(Cl)c(Cl)c2)C3)cc1` (single isomer, unassigned) [Compound C659a], in data set [1] (setting [3]), the EC50 turned out to be 0.12 µM. Besides, in data set [2] (setting [4]), half-maximal cytotoxicity (CC50 at 3 days) was put at 6.8 µM.
Consider `CNC(=O)c1ccc(-n2c(N[C@@H](C)c3ccc(C(F)(F)F)cc3)nc3c(c2=O)C[C@@H](C)N(C(=O)c2ccc(Cl)c(C(F)F)c2)C3)cc1` [Compound C628], for which the EC50 in data set [1] (setting [3]) was 0.05 µM. The same compound returned a CC50 at 3 days in data set [2] (setting [4]) of 23.2 µM.
Take `CNC(=O)c1cc(Cl)c(-n2c(NC(C)C)nc3c(c2=O)C[C@@H](C)N(C(=O)c2ccc(Cl)c(C(F)(F)F)c2)C3)c(Cl)c1` [Compound C688]: the EC50 in data set [1] (setting [3]) was found to be 0.04 µM. In data set [2] (setting [4]), this compound registered a CC50 at 3 days of 29.3 µM.
With `COc1ccc(CNc2nc3c(c(=O)n2-c2ccccc2OC)CCN(C(=O)c2cc4ccccc4[nH]2)C3)cc1` [Compound C2, 7-(1H-indole-2-carbonyl)-2-((4-methoxybenzyl)amino)-3-(2-methoxyphenyl)-5,6,7,8-tetrahydropyrido[3,4-d]pyrimidin-4(3H)-one], the EC50 in data set [1] (setting [6]) came out at 1.75 µM. The CC50 at 4 days in data set [2] is above 50 µM.
On to `CNC(=O)c1ccc(-n2c(N[C@H](C)c3ccc(F)c(F)c3)nc3c(c2=O)C[C@@H](C)N(C(=O)c2ccc(Cl)c(Cl)c2)C3)cc1` (single isomer, unassigned) [Compound C417a], for which, in data set [1] (setting [3]), the EC50 was found to be 1.22 µM. The CC50 at 3 days in data set [2] (setting [4]) came to 41.8 µM.
On to `CNC(=O)c1ccc(-n2c(N(C)Cc3nc(C)n[nH]3)nc3c(c2=O)C[C@@H](C)N(C(=O)c2ccc(Cl)c(Cl)c2)C3)cc1` [Compound C595], for which the EC50 in data set [1] (setting [3]) is above 25 µM. In data set [2] (setting [4]), this compound had a CC50 at 3 days above 50 µM.
The matching figures for `CNC(=O)c1ccc(-n2c(N[C@H](C)c3cccc(OC)c3)nc3c(c2=O)C[C@@H](C)N(C(=O)c2ccc(Cl)c(Cl)c2)C3)cc1` (single isomer, unassigned) [Compound C394a]: 32.5 µM and above 50 µM.
Regarding `COc1ccccc1-n1c(NCc2ccncc2)nc2c(c1=O)CCN(C(=O)c1ccc(Cl)c(Cl)c1)C2` [Compound C5, 7-(3,4-dichlorobenzoyl)-3-(2-methoxyphenyl)-2-{[(Pyridin-4-yl)methyl]amino}-5,6,7,8-tetrahydropyrido[3,4-d]pyrimidin-4(3H)-one], the concentration for a half-maximal effect (EC50) in data set [1] (setting [6]) worked out at 5.35 µM. Also, the CC50 at 4 days in data set [2] is above 50 µM.
`CNc1noc2cc(-n3c(NC(C)C)nc4c(c3=O)C[C@@H](C)N(C(=O)c3ccc(Cl)c(Cl)c3)C4)c(C)cc12` [Compound C447]: the EC50 in data set [1] (setting [7]) is 0.1 µM. This compound returned a CC50 at 3 days in data set [2] (setting [4]) above 50 µM.
For the compound `COc1ccc(CNc2nc3c(c(=O)n2-c2ccccc2F)CCN(C(=O)c2ccc(Cl)c(Cl)c2)C3)cc1` [Compound C14, 7-(3,4-dichlorobenzoyl)-3-(2-fluorophenyl)-2-{[(4-methoxyphenyl)methyl]amino}-5,6,7,8-tetrahydropyrido[3,4-d]pyrimidin-4(3H)-one], the EC50 in data set [1] (setting [6]) was 1 µM. Further, in data set [2] (setting [5]), the CC50 at 3 days was above 50 µM.
Turning to `CNC(=O)c1ccc(-n2c(NC(C)C)nc3c(c2=O)C[C@@H](C)N(C(=O)c2ccc(Cl)c(Cl)c2)C3)c(C(C)C)c1` [Compound C420], the EC50 in data set [1] (setting [7]) was 0.61 µM. Also, the CC50 at 3 days in data set [2] (setting [4]) amounted to 25 µM.
In the case of `CNC(=O)c1ccc(-n2c(NC(C)C)nc3c(c2=O)C[C@@H](C)N(C(=O)c2cc4sc(Br)cc4[nH]2)C3)cc1` [Compound C591], the EC50 in data set [1] (setting [3]) was 0.01 µM. For the same compound, it took 23.2 µM to reach half-maximal cytotoxicity in data set [2] (setting [4]) (CC50 at 3 days).
`CC(C)Nc1nc2c(c(=O)n1-c1ccc(C(=O)NCCO)cc1)C[C@@H](C)N(C(=O)c1ccc(Cl)c(Cl)c1)C2` [Compound C204, 4-[(6R)-7-(3,4-dichlorobenzoyl)-6-methyl-4-oxo-2-[(propan-2-yl)amino]-5,6,7,8-tetrahydropyrido[3,4-d]pyrimidin-3(4H)-yl]-N-(2-hydroxyethyl)benzamide]: the EC50 in data set [1] (setting [6]) amounted to 0.54 µM. Further, the CC50 at 3 days in data set [2] (setting [5]) is above 50 µM.
`CC(=O)c1ccc(-n2c(NC(C)C)nc3c(c2=O)CCN(C(=O)c2ccc(Cl)c(Cl)c2)C3)cc1` [Compound C127, 3-(4-acetylphenyl)-7-(3,4-dichlorobenzoyl)-2-[(propan-2-yl)amino]-5,6,7,8-tetrahydropyrido[3,4-d]pyrimidin-4(3H)-one]: the EC50 in data set [1] (setting [6]) stood at 1.28 µM. Besides, the CC50 at 3 days in data set [2] (setting [5]) was above 50 µM.
As to `CNC(=O)c1ccc([C@H](C)Nc2nc3c(c(=O)n2-c2ccc(C(=O)NC)cc2)C[C@@H](C)N(C(=O)c2ccc(Cl)c(Cl)c2)C3)cc1` (single isomer, unassigned) [Compound C530b], in data set [1] (setting [3]), the EC50 is above 10 µM. The compound further returned a CC50 at 3 days in data set [2] (setting [4]) above 50 µM.
